Holding throughout (type): cell-based
For assay [1], the target named is T1, Toll-like receptor 7 (Mus musculus) (UniProt P58681).
T1 sequence (whole entry): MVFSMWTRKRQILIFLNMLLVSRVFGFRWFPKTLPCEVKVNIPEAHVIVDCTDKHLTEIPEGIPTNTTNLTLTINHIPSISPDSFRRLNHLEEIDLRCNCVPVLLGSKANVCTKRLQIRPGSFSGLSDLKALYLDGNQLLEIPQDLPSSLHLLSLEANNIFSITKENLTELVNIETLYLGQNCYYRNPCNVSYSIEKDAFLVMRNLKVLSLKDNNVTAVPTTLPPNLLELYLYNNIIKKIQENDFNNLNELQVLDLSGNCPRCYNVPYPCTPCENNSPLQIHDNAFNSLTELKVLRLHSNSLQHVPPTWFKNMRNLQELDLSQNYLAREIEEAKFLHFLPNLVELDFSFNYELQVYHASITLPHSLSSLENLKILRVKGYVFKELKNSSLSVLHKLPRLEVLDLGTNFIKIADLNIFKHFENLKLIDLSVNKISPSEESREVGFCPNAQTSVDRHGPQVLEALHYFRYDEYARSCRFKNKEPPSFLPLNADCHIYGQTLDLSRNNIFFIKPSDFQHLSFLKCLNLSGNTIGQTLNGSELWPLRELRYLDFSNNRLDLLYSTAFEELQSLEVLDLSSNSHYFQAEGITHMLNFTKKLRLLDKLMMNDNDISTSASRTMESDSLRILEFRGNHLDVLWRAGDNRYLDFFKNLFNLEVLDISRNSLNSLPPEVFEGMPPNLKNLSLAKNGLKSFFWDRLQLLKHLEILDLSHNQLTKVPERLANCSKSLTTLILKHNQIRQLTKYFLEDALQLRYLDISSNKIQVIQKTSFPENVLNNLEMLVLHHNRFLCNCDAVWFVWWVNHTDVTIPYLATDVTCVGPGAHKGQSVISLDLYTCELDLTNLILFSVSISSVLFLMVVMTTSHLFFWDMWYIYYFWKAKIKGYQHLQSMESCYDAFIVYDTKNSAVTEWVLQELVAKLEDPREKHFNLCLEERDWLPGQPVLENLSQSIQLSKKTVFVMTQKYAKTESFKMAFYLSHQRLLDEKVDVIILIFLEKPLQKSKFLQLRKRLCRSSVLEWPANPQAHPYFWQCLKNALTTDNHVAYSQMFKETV
Description: Induction of TLR7 receptor-mediated C57BL/6 mouse BMD cells activation assessed as upregulation of CD86 at 1 uM after 48 hrs by flow cytometry. For orientation: In flow cytometry, cells or beads pass a laser one at a time.

The target of assay [2] is T1, Toll-like receptor 7 (Mus musculus). Description: Induction of TLR7 receptor-mediated C57BL/6 mouse BMD cells activation assessed as upregulation of CD40 at 1 uM after 48 hrs by flow cytometry.
Assay [3] shares this target. Description: Induction of TLR7 receptor-mediated C57BL/6 mouse BMD cells activation assessed as upregulation of MHC class-2 at 1 uM after 48 hrs by flow cytometry.
For assay [4] the target is unchanged. Description: Induction of TLR7 receptor-mediated C57BL/6 mouse BMD cells activation assessed as IL12 production at 5 uM after 24 hrs by ELISA. (In general: An ELISA detects its analyte on a solid surface through an enzyme-linked reagent.)
Assay [5] shares this target. Description: Induction of TLR7 receptor-mediated C57BL/6 mouse BMD cells activation assessed as IL12 production at 0.1 uM after 24 hrs by ELISA.
Assay [6] has the same target. Description: Induction of TLR7 receptor-mediated C57BL/6 mouse BMD cells activation assessed as IL12 production at 10 nM after 24 hrs by ELISA.

Each structure is given as a SMILES string. Active and inactive are the calls of the source. No cut-off for these calls is given here.

Take `[N-]=[N+]=NCCOCCOCCOc1nc(N)c2[nH]c(=O)n(Cc3ccccc3)c2n1`: the result in assay [1], in assay [2] and in assay [3] was inactive.
As to `COCCOc1nc(N)c2[nH]c(=O)n(Cc3ccccc3)c2n1`, the result in assay [1], in assay [4], in assay [2] and in assay [3] was Active.
For the compound `CCOCc1nc2c(N)nc3ccccc3c2n1CC(C)(C)O`, the result in assay [1], in assay [4], in assay [2] and in assay [3] was Active.
Regarding `[N-]=[N+]=NCCOc1nc(N)c2[nH]c(=O)n(Cc3ccccc3)c2n1`, the outcome in assay [1], in assay [4], in assay [2], in assay [3] and in assay [5] was Active.
Turning to `[N-]=[N+]=NCCCCCCOc1nc(N)c2[nH]c(=O)n(Cc3ccccc3)c2n1`, the outcome in assay [1], in assay [4], in assay [2] and in assay [3] was Active.
On to `[N-]=[N+]=NCCCCOc1nc(N)c2[nH]c(=O)n(Cc3ccccc3)c2n1`, for which the result in assay [1], in assay [4], in assay [2] and in assay [3] was Active.
Turning to `[N-]=[N+]=NCCCOc1nc(N)c2[nH]c(=O)n(Cc3ccccc3)c2n1`, the outcome in assay [1], in assay [4], in assay [2], in assay [3] and in assay [5] was Active.
For `[N-]=[N+]=NCCCCCOc1nc(N)c2[nH]c(=O)n(Cc3ccccc3)c2n1`, the result in assay [1], in assay [4], in assay [2] and in assay [3] was Active.
On to `[N-]=[N+]=NCCOCCOc1nc(N)c2[nH]c(=O)n(Cc3ccccc3)c2n1`, for which the result in assay [1], in assay [4], in assay [2] and in assay [3] was Active.
`CCCCOc1nc(N)c2[nH]c(=O)n(Cc3ccccc3)c2n1`: the outcome in assay [1], in assay [4], in assay [2], in assay [3] and in assay [6] was Active.

These data come from ChEMBL document CHEMBL1153992, “2-Azidoalkoxy-7-hydro-8-oxoadenine derivatives as TLR7 agonists inducing dendritic cell maturation” (Bioorg Med Chem Lett, 2009).
